*1 amine or outer side, *2 acyl side, *3 side chain or, on linkers, in order; H or OH if unused. Where a SMILES comes first, the peptide text is derived from it. Bridges are numbered along the chain shown (N, C = ends). [ ]: non-standard residue; d: D form. The star is where a group is joined. ξ: configuration not given here. Phe(3-CF3) = N[C@@H](Cc1cccc(C(F)(F)F)c1)C(=O)O; Phe(4-COOH) = N[C@@H](Cc1ccc(C(=O)O)cc1)C(=O)O; Bip = N[C@@H](Cc1ccc(-c2ccccc2)cc1)C(=O)O; Phe(4-CN) = N#Cc1ccc(C[C@H](N)C(=O)O)cc1; Phe(3-Me) = Cc1cccc(C[C@H](N)C(=O)O)c1; γGlu = O=C(O)[C@H](CCC(=O)[*:2])N[*:1]; NH(CH2)12COOH = O=C(O)CCCCCCCCCCCCN*; Cyclopropanecarbonyl = O=C(C1CC1)*; Val(3-OH) = CC(C)(O)[C@H](N)C(=O)O; hArg = N=C(N)NCCCC[C@H](N)C(=O)O; 4Pal = N[C@@H](Cc1ccncc1)C(=O)O; Cha = N[C@@H](CC1CCCCC1)C(=O)O; Cit = NC(=O)NCCC[C@H](N)C(=O)O; Ile(3ξ) = CCC(C)[C@H](N)C(=O)O; NMeN = CN[C@@H](CC(N)=O)C(=O)O; Thr(3ξ) = CC(O)[C@H](N)C(=O)O; 12Ado = NCCCCCCCCCCCC(=O)O; Carboxymethyl = O=C(O)C*; NMeA = CN[C@@H](C)C(=O)O; Orn = NCCC[C@H](N)C(=O)O; Aun = NCCCCCCCCCCC(=O)O; Dab = NCC[C@H](N)C(=O)O; AEEA = NCCOCCOCC(=O)O; Aoc = NCCCCCCCC(=O)O
These compounds were tested against T1, PD-1/PD-L1 interaction (PE-labeled human PD-L1-Ig binding to Jurkat cell line over-expressing human PD-1) (Homo sapiens, UniProt Q15116) (assay: Jurkat-PD-1 Cell Binding High-Content Screening Assay (CBA)). Conditions: Jurkat-hPD-1 cells, PE-labeled PD-L1-Ig 20 nM final; read-out: Jurkat HPD1 PDL1 IC50.
T1 construct: expressed in transfected cells; host or cells: Jurkat
Procedure, shortened: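 Jurkat-hPD-1 cells (8×10^3/well) in DMEM with 10% fetal calf serum were preincubated with compound for 2 h at 37 °C. PE-labeled PD-L1-Ig was then added at 20 nM final for 1 h. Cells were fixed in paraformaldehyde with Hoechst 33342, washed and imaged by high-content imaging.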

T1 sequence (Q15116 25-288): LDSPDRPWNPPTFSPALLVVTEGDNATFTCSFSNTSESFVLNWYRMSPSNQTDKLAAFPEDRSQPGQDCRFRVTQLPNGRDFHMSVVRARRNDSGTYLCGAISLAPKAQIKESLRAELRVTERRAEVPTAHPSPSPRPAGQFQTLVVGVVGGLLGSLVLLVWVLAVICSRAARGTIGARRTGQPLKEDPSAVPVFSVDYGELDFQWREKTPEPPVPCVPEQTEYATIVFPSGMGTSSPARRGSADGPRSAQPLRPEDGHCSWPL

SMILES | IC50
CC(C)C[C@@H]1NC(=O)[C@H](Cc2c[nH]c3ccccc23)NC(=O)[C@H](CC(=O)O)NC(=O)[C@H](Cc2ccncc2)NC(=O)[C@H](Cc2ccc(OCC(=O)O)cc2)NC(=O)CSC[C@@H](C(=O)N[C@@H](CCN)C(=O)NCCCCCCCCCCC(=O)O)NC(=O)[C@H](CO)NC(=O)[C@H](C(C)C)NC(=O)[C@H](CC2CCCCC2)NC(=O)[C@H](CCN)NC(=O)[C@@H](CC(C)C)NC(=O)[C@H](C)N(C)C(=O)[C@H](C(C)C)NC(=O)[C@H](Cc2ccc(-c3ccccc3)cc2)NC1=O [Example 1083] ({CH2CO}-Y(Carboxymethyl)[4Pal]DWL[Bip]V[NMeA][dL][Dab][Cha]VSC[Dab][Aun]-OH; thioether N-14) | 0.0157 µM
Cc1cccc(C[C@@H]2NC(=O)[C@H](CC(=O)O)NC(=O)[C@H](Cc3ccc(OCC(=O)O)cc3)NC(=O)[C@H](Cc3ccc(C#N)cc3)NC(=O)CSC[C@@H](C(=O)N[C@@H](CCN)C(=O)NCCCCCCCCCCC(=O)O)NC(=O)[C@H](CO)NC(=O)[C@H](C(C)(C)O)NC(=O)[C@H](CC3CCCCC3)NC(=O)[C@H](CCN)NC(=O)[C@@H](CC(C)C)NC(=O)[C@H](C)N(C)C(=O)[C@H](Cc3ccc(OCC(=O)O)cc3)NC(=O)[C@H](Cc3ccc(-c4ccccc4)cc3)NC(=O)[C@H](Cc3ccc(OCC(=O)O)cc3)NC2=O)c1 [Example 1288] ({CH2CO}-[Phe(4-CN)]Y(Carboxymethyl)D[Phe(3-Me)]Y(Carboxymethyl)[Bip]Y(Carboxymethyl)[NMeA][dL][Dab][Cha][Val(3-OH)]SC[Dab][Aun]-OH; thioether N-14) | 0.0147 µM
CC(C)C[C@H]1NC(=O)[C@H](C)N(C)C(=O)[C@H](Cc2ccc(C(=O)O)cc2)NC(=O)[C@H](Cc2ccc(-c3ccccc3)cc2)NC(=O)[C@H](Cc2ccc(C(=O)O)cc2)NC(=O)[C@H](Cc2cccc(C(F)(F)F)c2)NC(=O)[C@H](CC(=O)O)NC(=O)[C@H](Cc2ccc(OCC(=O)O)cc2)NC(=O)[C@H](Cc2ccc(C(=O)O)cc2)NC(=O)CSC[C@@H](C(=O)N[C@@H](CCN)C(=O)NCCOCCOCC(=O)N[C@@H](CCC(=O)NCCOCCOCC(=O)NCCCCCCCCCCCCC(=O)O)C(=O)O)NC(=O)[C@H](CO)NC(=O)[C@H](C(C)(C)O)NC(=O)[C@H](CC2CCCCC2)NC(=O)[C@H](CCN)NC1=O [Example 1161] ({CH2CO}-[Phe(4-COOH)]Y(Carboxymethyl)D[Phe(3-CF3)][Phe(4-COOH)][Bip][Phe(4-COOH)][NMeA][dL][Dab][Cha][Val(3-OH)]SC[Dab][AEEA][γGlu][AEEA]-{NH(CH2)12COOH}; thioether N-14) | 0.0814 µM
COC[C@@H]1NC(=O)CSC[C@@H](C(=O)N[C@@H](CCN)C(=O)NCCCCCCCCCCCCC(=O)O)NC(=O)[C@H](Cc2c[nH]cn2)NC(=O)[C@H](C(C)(C)O)NC(=O)[C@H](CC2CCCCC2)NC(=O)[C@H](CCN)NC(=O)[C@@H](CC(C)C)NC(=O)[C@H](C)N(C)C(=O)[C@H](CCC(N)=O)NC(=O)[C@H](Cc2ccc(-c3ccccc3)cc2)NC(=O)[C@H](Cc2ccc(C(=O)O)cc2)NC(=O)[C@H](Cc2cccc(C(F)(F)F)c2)NC(=O)[C@H](CC(=O)O)NC(=O)[C@H](Cc2ccc(OCC(=O)O)cc2)NC1=O [Example 1137] ({CH2CO}-S(Me)Y(Carboxymethyl)D[Phe(3-CF3)][Phe(4-COOH)][Bip]Q[NMeA][dL][Dab][Cha][Val(3-OH)]HC[Dab]-{NH(CH2)12COOH}; thioether N-14) | 0.0135 µM

Results, then the compound that gave them:

IC50 | SMILES
0.0166 µM | Cc1cccc(C[C@@H]2NC(=O)[C@H](CC(=O)O)NC(=O)[C@H](Cc3ccc(OCC(=O)O)cc3)NC(=O)[C@H](CCCCNC(=N)N)NC(=O)CSC[C@@H](C(=O)N[C@@H](CCN)C(=O)NCCCCCCCCCCC(=O)O)NC(=O)[C@H](C(C)O)NC(=O)[C@H](C(C)C)NC(=O)[C@H](CC3CCCCC3)NC(=O)[C@H](CCN)NC(=O)[C@@H](CC(C)C)NC(=O)[C@H](C)N(C)C(=O)[C@H](CCCNC(=O)C3CC3)NC(=O)[C@H](Cc3ccc(-c4ccccc4)cc3)NC(=O)[C@H](Cc3ccc(O)cc3)NC2=O)c1 (stereo partly drawn) [Example 2398] ({CH2CO}-[hArg]Y(Carboxymethyl)D[Phe(3-Me)]Y[Bip][Orn](Cyclopropanecarbonyl)[NMeA][dL][Dab][Cha]V[Thr(3ξ)]C[Dab][Aun]-OH; thioether N-14)
0.0199 µM | Cc1cccc(C[C@@H]2NC(=O)[C@H](CC(=O)O)NC(=O)[C@H](Cc3ccc(OCC(=O)O)cc3)NC(=O)[C@H](C(C)O)NC(=O)CSC[C@@H](C(=O)N(C)[C@@H](CC(N)=O)C(=O)NCCOCCOCC(=O)NCCCCCCCCCCC(=O)O)NC(=O)[C@H](CCCNC(N)=O)NC(=O)[C@H](C(C)C)NC(=O)[C@H](CC3CCCCC3)NC(=O)[C@H](CCN)NC(=O)[C@@H](CC(C)C)NC(=O)[C@H](C)N(C)C(=O)[C@H](C(C)C)NC(=O)[C@H](Cc3ccc(-c4ccccc4)cc3)NC(=O)[C@H](C(C)C)NC2=O)c1 (stereo partly drawn) [Example 2305] ({CH2CO}-[Thr(3ξ)]Y(Carboxymethyl)D[Phe(3-Me)]V[Bip]V[NMeA][dL][Dab][Cha]V[Cit]C[NMeN][AEEA][Aun]-OH; thioether N-14)
0.0179 µM | CCC(C)[C@@H]1NC(=O)[C@H](Cc2ccc(-c3ccccc3)cc2)NC(=O)[C@H](C(C)C)NC(=O)[C@H](Cc2c[nH]c3ccccc23)NC(=O)[C@H](CC(=O)O)NC(=O)[C@H](Cc2ccc(OCC(=O)O)cc2)NC(=O)[C@H](Cc2ccc(OCC(=O)O)cc2)NC(=O)CSC[C@@H](C(=O)N[C@H](CC(N)=O)C(=O)NCCCCCCCCCCC(=O)O)NC(=O)[C@H](CCCNC(=N)N)NC(=O)[C@H](C(C)C)NC(=O)[C@H](CC2CCCCC2)NC(=O)[C@H](CCN)NC(=O)[C@@H](CC(C)C)NC(=O)[C@H](C)N(C)C1=O (stereo partly drawn) [Example 2287] ({CH2CO}-Y(Carboxymethyl)Y(Carboxymethyl)DWV[Bip][Ile(3ξ)][NMeA][dL][Dab][Cha]VRC[dN][Aun]-OH; thioether N-14)

Same assay, conditions: PE-labeled PD-L1-Ig 20 nM final, Jurkat-hPD-1 cells; read-out: Jurkat HPD1 PDL1 IC50

SMILES | IC50
CC(=O)NCC[C@H](NC(=O)[C@@H]1CSCC(=O)N[C@@H]([C@@H](C)O)C(=O)N[C@@H](Cc2ccc(OCC(=O)O)cc2)C(=O)N[C@@H](CC(=O)O)C(=O)N[C@@H](Cc2cccc(C)c2)C(=O)N[C@@H](Cc2ccc(OCC(=O)O)cc2)C(=O)N[C@@H](Cc2ccc(-c3ccccc3)cc2)C(=O)N[C@@H](Cc2ccc(OCC(=O)O)cc2)C(=O)N(C)[C@@H](C)C(=O)N[C@H](CC(C)C)C(=O)N[C@@H](CCNC(C)=O)C(=O)N[C@@H](CC2CCCCC2)C(=O)N[C@@H](C(C)C)C(=O)N[C@@H](CCC(=O)O)C(=O)N1)C(=O)NCCCCCCCC(=O)NCCCCCCCCCCCC(=O)O [Example 2676] ({CH2CO}-TY(Carboxymethyl)D[Phe(3-Me)]Y(Carboxymethyl)[Bip]Y(Carboxymethyl)[NMeA][dL][Dab](Ac)[Cha]VEC[Dab](Ac)[Aoc][12Ado]-OH; thioether N-14) | 0.503 µM
Cc1cccc(C[C@@H]2NC(=O)[C@H](CC(=O)O)NC(=O)[C@H](Cc3ccc(C(=O)O)cc3)NC(=O)[C@H](C(C)O)NC(=O)CSC[C@@H](C(=O)N[C@@H](CCN)C(=O)NCCOCCOCC(=O)NCCCCCCCCCCC(=O)O)NC(=O)[C@H](CO)NC(=O)[C@H](C(C)(C)O)NC(=O)[C@H](CC3CCCCC3)NC(=O)[C@H](CCN)NC(=O)[C@@H](CC(C)C)NC(=O)[C@H](C)N(C)C(=O)[C@H](Cc3ccc(C(=O)O)cc3)NC(=O)[C@H](Cc3ccc(-c4ccccc4)cc3)NC(=O)[C@H](Cc3ccc(C(=O)O)cc3)NC2=O)c1 (stereo partly drawn) [Example 2562] ({CH2CO}-[Thr(3ξ)][Phe(4-COOH)]D[Phe(3-Me)][Phe(4-COOH)][Bip][Phe(4-COOH)][NMeA][dL][Dab][Cha][Val(3-OH)]SC[Dab][AEEA][Aun]-OH; thioether N-14) | 0.0021 µM
